Results published in ChEMBL document CHEMBL1201862, “PubChem BioAssay data set” (2004).
“And” between values parts separate entries of the source, which are not always exact repeats. Equal entries are not always repeated.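 Values below derive from 48-hour exposures of cells grown in 96-well plates, with endpoints linearly interpolated between the two concentrations bracketing the appropriate inhibition level. GI50 = concentration required for 50% inhibition of growth.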 The source made the active and inactive calls. Rule as the data show it: active = GI50 up to about 1.1 µM and inactive = higher.

How the values were obtained:
Test in all cases: inhibition of tumour cell growth, NCI panel, 48 h
MDA-N = tested on: MDA-N
CAKI-1 = tested on: CAKI-1
KM12 = tested on: KM12
SF-295 = tested on: SF-295
SNB-19 = tested on: SNB-19
DU-145 = tested on: DU-145
TK-10 = tested on: TK-10
HOP-92 = tested on: HOP-92
SW-620 = tested on: SW-620
HCC 2998 = tested on: HCC 2998
OVCAR-3 = tested on: OVCAR-3
SK-OV-3 = tested on: SK-OV-3
SR = tested on: SR
LOX IMVI = tested on: LOX IMVI
T47D = tested on: T47D
RPMI-8226 = tested on: RPMI-8226
HCT-15 = tested on: HCT-15
MDA-MB-231 = tested on: MDA-MB-231
PC-3 = tested on: PC-3
M14 = tested on: M14
NCI-H460 = tested on: NCI-H460
786-0 = tested on: 786-0
NCI-H522 = tested on: NCI-H522
OVCAR-8 = tested on: OVCAR-8
Malme-3M = tested on: Malme-3M
EKVX = tested on: EKVX
BT-549 = tested on: BT-549
HCT-116 = tested on: HCT-116
SN12C = tested on: SN12C
UACC-62 = tested on: UACC-62
U-251 = tested on: U-251
SK-MEL-2 = tested on: SK-MEL-2
K562 = tested on: K562
SF-268 = tested on: SF-268
IGROV-1 = tested on: IGROV-1
ACHN = tested on: ACHN
SNB-75 = tested on: SNB-75
UO-31 = tested on: UO-31
SF-539 = tested on: SF-539
SK-MEL-28 = tested on: SK-MEL-28
NCI-H23 = tested on: NCI-H23
COLO 205 = tested on: COLO 205
OVCAR-4 = tested on: OVCAR-4
A549 = tested on: A549
A498 = tested on: A498
UACC-257 = tested on: UACC-257
CCRF-CEM = tested on: CCRF-CEM
MDA-MB-435 = tested on: MDA-MB-435
HT-29 = tested on: HT-29
HL-60 = tested on: HL-60
MCF7 = tested on: MCF7
NCI/ADR-RES = tested on: NCI/ADR-RES
Hs-578T = tested on: Hs-578T
HOP-62 = tested on: HOP-62
RXF 393 = tested on: RXF 393
NCI-H226 = tested on: NCI-H226
OVCAR-5 = tested on: OVCAR-5
SK-MEL-5 = tested on: SK-MEL-5
MOLT-4 = tested on: MOLT-4
SNB-78 = tested on: SNB-78
LXFL 529 = tested on: LXFL 529
M19-MEL = tested on: M19-MEL
DMS-114 = tested on: DMS-114
DMS-273 = tested on: DMS-273

## N#C/C(=C/N1C(=O)/C(=C/c2ccc([N+](=O)[O-])cc2)SC1=S)c1nc2ccccc2s1
MDA-N
  GI50: 24.4 µM (inactive)
CAKI-1
  GI50: 30.8 µM (inactive)
KM12
  GI50: 28.2 µM (inactive)
SF-295
  GI50: 11.3 µM (inactive)
SNB-19
  GI50: 29.6 µM (inactive)
DU-145
  GI50: 31.8 µM (inactive)
TK-10
  GI50: 26.9 µM (inactive)
HOP-92
  GI50: 17.5 µM (inactive)
SW-620
  GI50: 34.8 µM (inactive)
HCC 2998
  GI50: 14.2 µM (inactive)
OVCAR-3
  GI50: 3.48 µM (inactive)
SK-OV-3
  GI50: 15.9 µM (inactive)
SR
  GI50: 25.6 µM (inactive)
LOX IMVI
  GI50: 26.4 µM (inactive)
T47D
  GI50: 8.85 µM (inactive)
RPMI-8226
  GI50: 11.1 µM (inactive)
HCT-15
  GI50: 21.6 µM
MDA-MB-231
  GI50: 12.8 µM (inactive)
PC-3
  GI50: 13.8 µM (inactive)
M14
  GI50: 27.8 µM (inactive)
NCI-H460
  GI50: 14.8 µM (inactive)
786-0
  GI50: 25.4 µM (inactive)
NCI-H522
  GI50: 12.6 µM (inactive)
OVCAR-8
  GI50: 37.9 µM (inactive)
Malme-3M
  GI50: 25.8 µM (inactive)
EKVX
  GI50: 18.4 µM (inactive)
BT-549
  GI50: 19.4 µM (inactive)
HCT-116
  GI50: 14.3 µM (inactive)
SN12C
  GI50: 23.5 µM (inactive)
UACC-62
  GI50: 4.42 µM (inactive)
U-251
  GI50: 15.2 µM (inactive)
SK-MEL-2
  GI50: 16.7 µM (inactive)
K562
  GI50: 17.5 µM (inactive)
SF-268
  GI50: 24.7 µM (inactive)
IGROV-1
  GI50: 12.3 µM (inactive)
ACHN
  GI50: 17.3 µM (inactive)
SNB-75
  GI50: 25.1 µM (inactive)
UO-31
  GI50: 16.1 µM (inactive)
SF-539
  GI50: 28.9 µM (inactive)
SK-MEL-28
  GI50: 30.1 µM (inactive)
NCI-H23
  GI50: 20.7 µM (inactive)
COLO 205
  GI50: 14.5 µM (inactive)
OVCAR-4
  GI50: 29.7 µM (inactive)
A549
  GI50: 25.6 µM (inactive)
A498
  GI50: 12.1 µM (inactive)
UACC-257
  GI50: 14.2 µM (inactive)
CCRF-CEM
  GI50: 24.5 µM (inactive)
MDA-MB-435
  GI50: 29.5 µM (inactive)
HT-29
  GI50: 31.2 µM (inactive)
HL-60
  GI50: 17.5 µM (inactive)
MCF7
  GI50: 15.6 µM (inactive)
NCI/ADR-RES
  GI50: 32.7 µM (inactive)
Hs-578T
  GI50: 29.6 µM (inactive)
HOP-62
  GI50: 0.406 µM (active)
RXF 393
  GI50: 19.3 µM (inactive)
NCI-H226
  GI50: 12.2 µM (inactive)
OVCAR-5
  GI50: 29.1 µM (inactive)
SK-MEL-5
  GI50: 11.4 µM (inactive)

## NCCSSC/C=C\CSSCCN
CAKI-1
  GI50: 33.7 µM (inactive) and 38.8 µM (inactive)
MOLT-4
  GI50: 18.6 µM (inactive) and 15.5 µM (inactive)
HOP-92
  GI50: 38 µM (inactive) and 41.6 µM (inactive)
SW-620
  GI50: 16.2 µM (inactive) and 13.5 µM (inactive)
SNB-78
  GI50: 35.2 µM (inactive) and 28.4 µM (inactive)
RPMI-8226
  GI50: 26.2 µM (inactive) and 21.9 µM (inactive)
HCT-15
  GI50: 46.9 µM and 34.3 µM
M14
  GI50: 17.8 µM (inactive) and 31.5 µM (inactive)
NCI-H522
  GI50: 15.7 µM (inactive) and 15.5 µM (inactive)
OVCAR-8
  GI50: 17.6 µM (inactive) and 27.2 µM (inactive)
LXFL 529
  GI50: 23.9 µM (inactive) and 20.1 µM (inactive)
HCT-116
  GI50: 40.3 µM (inactive) and 36.8 µM (inactive)
U-251
  GI50: 34.4 µM (inactive) and 20.6 µM (inactive)
M19-MEL
  GI50: 50.9 µM (inactive) and 29.4 µM (inactive)
SNB-75
  GI50: 34.8 µM (inactive) and > 53.3 µM (inactive)
DMS-114
  GI50: 30.8 µM (inactive) and 20 µM (inactive)
SF-539
  GI50: 29.6 µM (inactive) and 18.1 µM (inactive)
NCI-H23
  GI50: 29.6 µM (inactive) and 40.7 µM (inactive)
OVCAR-4
  GI50: 18.8 µM (inactive) and 26.7 µM (inactive)
DMS-273
  GI50: 41.1 µM (inactive) and 22 µM (inactive)
CCRF-CEM
  GI50: 5.56 µM (inactive)
HT-29
  GI50: 26.6 µM (inactive) and 34.6 µM (inactive)
HL-60
  GI50: 7.06 µM (inactive) and 14.1 µM (inactive)
RXF 393
  GI50: 54.1 µM (inactive) and 35.9 µM (inactive)

## COc1ccc2c3c1OC1C(=O)C=CC4(O)C(C2)NCC[C@@]314 (stereo partly specified)
MDA-N
  GI50: 1.26 µM (inactive)
CAKI-1
  GI50: 2.13 µM (inactive)
KM12
  GI50: 2.84 µM (inactive)
SF-295
  GI50: 3.69 µM (inactive)
SNB-19
  GI50: 5.55 µM (inactive)
DU-145
  GI50: 3.24 µM (inactive)
MOLT-4
  GI50: 1.28 µM (inactive)
TK-10
  GI50: 1.68 µM (inactive)
HOP-92
  GI50: 5.26 µM (inactive)
SW-620
  GI50: 1.11 µM (active)
HCC 2998
  GI50: 2.1 µM (inactive)
OVCAR-3
  GI50: 1.52 µM (inactive)
SK-OV-3
  GI50: 3.18 µM (inactive)
SR
  GI50: 1.76 µM (inactive)
LOX IMVI
  GI50: 1.91 µM (inactive)
T47D
  GI50: 0.968 µM (active)
RPMI-8226
  GI50: 1.12 µM (inactive)
HCT-15
  GI50: 2.11 µM
MDA-MB-231
  GI50: 2.95 µM (inactive)
PC-3
  GI50: 3.3 µM (inactive)
M14
  GI50: 2.3 µM (inactive)
NCI-H460
  GI50: 3.37 µM (inactive)
786-0
  GI50: 1.58 µM (inactive)
NCI-H522
  GI50: 0.556 µM (active)
OVCAR-8
  GI50: 1.69 µM (inactive)
Malme-3M
  GI50: 0.964 µM (active)
EKVX
  GI50: 2.3 µM (inactive)
BT-549
  GI50: 1.95 µM (inactive)
HCT-116
  GI50: 1.73 µM (inactive)
SN12C
  GI50: 1.51 µM (inactive)
UACC-62
  GI50: 3.44 µM (inactive)
U-251
  GI50: 2.13 µM (inactive)
SK-MEL-2
  GI50: 2.4 µM (inactive)
K562
  GI50: 2.51 µM (inactive)
SF-268
  GI50: 2.07 µM (inactive)
IGROV-1
  GI50: 5.71 µM (inactive)
ACHN
  GI50: 2.23 µM (inactive)
SNB-75
  GI50: 1.25 µM (inactive)
UO-31
  GI50: 2.1 µM (inactive)
SF-539
  GI50: 1.55 µM (inactive)
SK-MEL-28
  GI50: 2.92 µM (inactive)
NCI-H23
  GI50: 2.03 µM (inactive)
COLO 205
  GI50: 1.44 µM (inactive)
OVCAR-4
  GI50: 2.62 µM (inactive)
A549
  GI50: 4.61 µM (inactive)
A498
  GI50: 3.29 µM (inactive)
UACC-257
  GI50: 1.77 µM (inactive)
CCRF-CEM
  GI50: 0.574 µM (active)
MDA-MB-435
  GI50: 1.4 µM (inactive)
HT-29
  GI50: 2.54 µM (inactive)
HL-60
  GI50: 1.8 µM (inactive)
MCF7
  GI50: 1.98 µM (inactive)
NCI/ADR-RES
  GI50: 4 µM (inactive)
Hs-578T
  GI50: 2.19 µM (inactive)
HOP-62
  GI50: 2.39 µM (inactive)
RXF 393
  GI50: 1.39 µM (inactive)
NCI-H226
  GI50: 8.75 µM (inactive)
OVCAR-5
  GI50: 2.46 µM (inactive)
SK-MEL-5
  GI50: 4.16 µM (inactive)
